In data set [1] the test system is (Na^++K^+)-ATPase. Nature of the data set: Immunofluorescent staining of antibody in rat cardiac myocytes and CV-1 cells. It counts as binding, rat; African green monkey. As to conditions: for competition with the Jianye-2 antibody binding site (Jianye-2 antibody staining in presence of competitor): 1 mM ouabain or strophanthidin. The source says: FIG. 1 (which includes FIGS. 1A through 1F) are photographs showing the immunofluorescent staining of Jianye-2 antibody in rat cardiac myocytes and African green monkey CV-1 cells, FIGS. 1A-1B are photographs of the confocal image of rat cardiac myocytes in the presence of Jianye-2 (FIG. 1A) or with both Jianye-2 antibody and peptide blocker (FIG. 1B). […] FIG. 1D is a photograph of a single CV-1 cell image at 3000× FIGS. 1E-1F are photographs showing Jianye-2 antibody staining in the presence of either 1 mM ouabain (FIG. 1E) or strophanthidin (FIG. 1F).
Confocal image of rat cardiac myocytes in the presence of Jianye-2, shown in FIG. 1A or with both Jianye-2 antibody and peptide blocker (FIG. 1B). […] Jianye-2 antibody staining in the presence of either 1 mM ouabain (FIG. 1E) or strophanthidin (FIG. 1F). […] Time runs from left to right. […] Columns B, C, D show the results obtained 10, 20, 30 min after administration of either buffer (upper panel) or Jianye-2 antibody (lower panel, 85 nM). Enzyme activity was monitored in cell homogenates under the same experimental condition. […] The data represent a mean of 12 independent experiments. […] The data represent a mean of four independent experiments.

For the next data set, the system named is heart failure rats. Nature of the data set: Immunization with KX-1 peptide vaccine in heart failure rat model (echocardiography). It counts as in vivo. As to conditions: peptide injected as vaccine, TiterMax Gold adjuvant, vs control heart failure rat without immunization. On the procedure: FIG. 9 is a graph showing the effect of immunization with KX-1 on the rat cardiac heart failure function. The peptide DVEDSYGQQWTYEQR (SEQ ID NO: 2) was injected into the animal as a vaccine to reduce the rate of progression of heart failure in the heart failure rat model. TiterMax Gold was used as an adjuvant throughout the experiment.
Echocardiography (Echo) uses sound waves to form a picture of the heart valves and heart muscle. The Echo machine sends sound waves to a transducer (a sound sensitive instrument) that is placed on the animal's chest. The sound waves are reflected by the heart was (muscle) and heart valves and back to the transducer, which changes the sound into a picture. Gel is applied on the rat chest and a transducer is placed over the heart area. Heart structures are examined by changing the direction of the transducer. The sound waves cause no discomfort. Thus, an Echo detects the changes and provides information about heart chamber size, wall motion, valve movements, and structural changes in and around the heart.

Another data set has as its system rat ventricular myocytes. Nature of the data set: Measurement of cell contraction in isolated rat ventricular myocytes. It is filed as cell-based. The method, then:
Ventricular cardiac myocytes were isolated from adult Sprague-Dawley rats (2-3 months old; weight 225-300 g) using standard enzymatic techniques. Briefly, following anesthesia (sodium pentobarbital, 100 mg/kg), the heart was quickly removed from the chest and aortic perfused at constant pressure (100 cmH2O) at 37° C. for 3 minutes with a Ca^2+-free bicarbonate-based buffer containing 120 mM NaCl, 5.4 mM MgSO4, 1.2 mM NaH2PO4, 5.6 mM glucose, 20 mM NaHCO3, and 5 mM taurine, in the presence of O2 (95%)-CO2 (5%). The enzymatic digestion was initiated by adding collagenase (Worthington Type II, 1 mg/ml) to the perfusion solution. Calcium (50 µM) was added to the enzyme solution when the heart became swollen. About 7 minutes later, the left ventricle was quickly removed, cut into several pieces, and further digested on a shaker (60-70 rpm) for 10 minutes in the same enzyme solution. The supernatant containing the dispersed myocytes was filtered into a test tube and gently centrifuged at 500 rpm for 1 minute. […]
Cardiac myocytes were isolated from wild-type adult Sprague-Dawley rats, using a standard enzymatic method described previously (Xu, K. Y., et al., (2002) BBRC, 289:167-172). […] Cell length was monitored from the bright-field image (650 nm to 750 nm red light illumination) by an optical edge-tracking method using a photodiode array (model 1024 SAQ, Reticon) with a 3-ms time resolution. […]

A further data set relates to rat cardiac myocytes. Nature of the data set: Measurement of intracellular Ca2+ transients. It is filed as cell-based. As to conditions: rat heart cells; mean of 12 independent experiments. On the procedure: Rat cardiac myocytes were loaded with 50 µg of a cell permeable fluorescent Ca.2+ probe, Indo-1/acetoxymethyl-ester (Indo-1/AM, Molecular Probes, Inc., Eugene, Oreg.) for 10 min and then resuspended in HEPES-buffered solution in the presence of 1 mM Ca.2+ and stored in the dark at room temperature for 60 min before be utilized for the experiments. The Indo-1 loaded cells were placed on the stage of a modified inverted microscope (model IM-35; Carl Zeiss, Inc., Thornwood, N.Y.) equipped for simultaneous recording of Indo-1 fluorescence and cell length. Cells were electrically paced at 0.5 Hz at room temperature and the excitation wavelength was selected by a 350-nm interference filter (bandwidth 10 nm; Oriel Corp., Stratford, Conn.). The ratio of emission intensity at 410 nm to that at 490 nm was computed offline as an index of intracellular Ca.2+ (Cai^2+) transient. The peak amplitude of the transient is defined as the difference of the 410:490 fluorescence ratio before and after electrical stimulation with or without antibody.

In data set [2] the target is T1, (Na^++K^+)-ATPase (Rattus norvegicus, UniProt P06685).
T1 construct: Rat cardiac sarcolemmal (SL) vesicles were isolated from rat heart muscle by sucrose flotation method; from tissue; host or cells: rat heart muscle (sarcolemmal vesicles, SDS treatment and sucrose gradient)
Nature of the data set: Determination of (Na^++K^+)-ATPase activity. It counts as biochemical. As to conditions: monitored in cell homogenates under the same experimental condition as contraction.

The test system of data set [3] is mouse heart left ventricle. Nature of the data set: Measurement of mice cardiac contraction in vivo (pressure-volume catheter). The method, then:
Male wild-type mice (CD1, Charles River, 32-40 g) were utilized for this study. Mice In vivo cardiac functions were assessed by pressure-volume catheter in anesthetized mice. Briefly, mice were induced with 5% isofluorane, anesthetized with an intraperitoneal injection of urethane (300-500 mg/kg), etomidate (5 mg/kg) and morphine (0.5 mg kg-1), and intubated with a blunt 19 G needle inserted via tracheostomy. […] Ventilation was initiated with 100% oxygen using a custom-designed, constant flow ventilator delivering a tidal volume of […] at 120 breaths per min. The left external jugular vein was cannulated with a 30 G needle connected to an infusion pump. Modest volume expansion was provided (150 µL of 12.5% human albumin) at 50 µL/min. Following stabilization, a lateral incision was made at the xyphoid cartilage to expose the left ventricular (LV) apex. The 1.4F pressure-volume catheter (SPR-839, Millar Instruments Inc., Houston, Tex., USA) was inserted via an apical needle puncture with a 26 G needle, and advanced along the cardiac long axis. A 2F pacing catheter (NuMed, Nicholville, N.Y., USA) was placed in the esophagus, dorsal to the left atrium. Atrium was paced using 5-7 V, 2 ms pulses (SD25, Grass Instruments, Quincy, Mass., USA). Calibration of the volume signal was performed using a 5-10 µL bolus of 30% hypertonic saline injected into the jugular vein to determine the signal offset and ultrasound flow probe (AT01RB, Transonic Systems Inc.) placed around the thoracic aorta to determine signal gain. Data were digitized at 2 kHz and stored to disk for off line analysis.
Mice cardiac atria pacing were maintained at constant beating (600 beats/min). The hearts were infused with PBS (5 µl/min) for 10 min prior for administration of SSA78 infusion (5 µl/min) for 30 minutes and following by 10 min PBS washout at 5 µl/min. […] Steady-state indices were derived from 10 consecutive averaged beats. Cardiac preload was indexed as the left ventricular end-diastolic volume (EDV) and end-diastolic pressure (EDP). Cardiac afterload was evaluated as effective arterial elastance (Ea; ratio of LV systolic pressure to stroke volume). This parameter is not preload dependent and had been validated to closely approximate total afterload, which incorporates systemic vascular resistance, aortic impedance, and the reflected wave properties of the vasculature. Myocardial contractility was indexed by cardiac output (CO), dPdt max, dPdt max normalized to instantaneous developed pressure (dPdt max/IP), the load-independent end-systolic pressure-volume relationship (Ees) and preload recruitable stroke work (PRSW). Diastolic perform performance was measured by dPdt min and the time constant of ventricular relaxation.

Entries after “also recorded” stand apart in the source; their conditions may differ. Where two headings read alike, the source gives them in different places.

On to `C[C@@H]1O[C@@H](O[C@H]2C[C@@H](O)[C@]3(CO)[C@H]4[C@H](O)C[C@]5(C)[C@@H](C6=CC(=O)OC6)CC[C@]5(O)[C@@H]4CC[C@]3(O)C2)[C@H](O)[C@H](O)[C@H]1O` [ouabain, reference compound], for which the “competition with the Jianye-2 antibody binding site (Jianye-2 antibody staining in presence of competitor)” value in the data set on (Na^++K^+)-ATPase [1] is listed as “compete with the Jianye-2 antibody binding site”.
On the same count and under the same terms, to `C[C@]12CC[C@H]3[C@@H](CC[C@]4(O)C[C@@H](O)CC[C@]34C=O)[C@@]1(O)CC[C@@H]2C1=CC(=O)OC1` [strophanthidin, reference compound] belongs “compete with the Jianye-2 antibody binding site”.
“DVEDSYGQQWTYEQR [peptide of the H7-H8 domain of (Na++K+)-ATPase alpha-subunit, injected as vaccine to generate endogenous KX-1 antibody]”: the “rate of progression of heart failure (cardiac function)” value in the data set with heart failure rats is “significantly decreased the progression of heart failure; also recorded: significantly delayed the rate of the progression of heart failure”.
As to “Jianye-2 antibody: polyclonal rabbit IgG recognizing the RSATEEEPPNDD (SEQ ID NO: 1) peptide (H1-H2 domain) of the alpha-subunit of (Na++K+)-ATPase”, the “binding to the (Na++K+)-ATPase on the surface of the cell membrane (immunofluorescent staining)” value in the data set with (Na^++K^+)-ATPase [1] (rat cardiac myocytes and African green monkey CV-1 cells) is on record as “specifically binds; also recorded: binds to its antigenic site”. The “rat heart cell contraction (time course)” value in the data set on rat ventricular myocytes (85 nM antibody, 10, 20, 30 min after administration, vs buffer) was “enhanced rat heart cell contraction”. Moreover, the EC50 in the data set with rat ventricular myocytes (dose-dependent contractile response in rat ventricular myocytes, mean of four independent experiments, read-out: half maximal contractile response (EC50)) was 35 nM. Further, in the data set on rat cardiac myocytes, the “intracellular Ca2+” value is reported as “markedly increased”. Besides, the “(Na++K+)-ATPase activity” value with (Na^++K^+)-ATPase [2] is on record as “without inhibiting”. Moreover, the “first order rate constant of increase in mouse heart contraction” value is listed as 1.06 %/min in data set [3], 1.06 %/min in data set [3] (3.4 µM antibody), 2.16 %/min in data set [3] (6.0 µM antibody) and 2.16 %/min in data set [3] (6.0 mM antibody). In addition, the “mouse heart contraction, percent of background control (0 min as 100%)” value is 108(.+−.5.3) % in data set [3] (3.4 µM antibody, 5 min); 113(.+−.7) % in data set [3] (3.4 µM antibody, 10 min); 116(.+−.10) % in data set [3] (3.4 µM antibody, 15 min); 122(.+−.9.0) % in data set [3] (3.4 µM antibody, 20 min); 115(.+−.9.0) % in data set [3] (6.0 µM antibody, 5 min); 127(.+−.21) % in data set [3] (6.0 µM antibody, 10 min). Besides, the “mouse heart contraction, percent of background control (0 min as 100%)” value is reported as 137(.+−.16) % in data set [3] (6.0 µM antibody, 15 min); 143(.+−.30) % in data set [3] (6.0 µM antibody, 20 min); 115(.+−.9.0) % in data set [3] (6.0 mM antibody, 5 min); 127(.+−.21) % in data set [3] (6.0 mM antibody, 10 min); 137(.+−.16) % in data set [3] (6.0 mM antibody, 15 min); 143(.+−.30) % in data set [3] (6.0 mM antibody, 20 min). For the same compound, the “mouse heart contraction, percent of background control (0 min as 100%)” value is on record as 108(.+−.5.3) % in data set [3] (5 min), 113(.+−.7) % in data set [3] (10 min), 116(.+−.10) % in data set [3] (15 min) and 122(.+−.9.0) % in data set [3] (20 min). Also, the “positive inotropic effect (ventricular pressure-volume loops)” value in data set [3] (normal mouse heart left ventricle, 6.0 µM in PBS, pH 7.2, total 150 ml at 5 ml/min) is “dramatically induced a reversible positive inotropic effect”.

The record behind these values is patent US8383111B2, “Inotropic antibodies and therapeutic uses thereof” (priority 2002, dated 2013).
